{"source": "patent US8217045B2", "about": "“Organic compounds” (Novartis AG, priority 2007, dated 2012)", "key": {"c-Abl (His-cAbl)": {"target": "T1, c-Abl (His-cAbl) (Homo sapiens, UniProt P00519)", "T1 construct": "The His-tagged kinase domain of Abl is cloned and expressed; His tag; made in house; host or cells: baculovirus/Sf9", "T1 sequence (P00519 242-493 limits assumed)": "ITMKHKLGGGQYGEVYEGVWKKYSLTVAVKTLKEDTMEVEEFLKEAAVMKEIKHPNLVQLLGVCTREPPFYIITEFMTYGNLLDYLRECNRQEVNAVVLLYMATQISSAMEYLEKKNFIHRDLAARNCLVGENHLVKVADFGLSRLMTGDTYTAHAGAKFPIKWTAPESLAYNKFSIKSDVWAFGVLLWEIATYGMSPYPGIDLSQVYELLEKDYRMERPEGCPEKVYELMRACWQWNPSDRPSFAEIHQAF", "assay": "in vitro enzyme assay, wild-type Abl catalysed phosphorylation", "type": "biochemical", "details": "16 nM His-cAbl, 10 μM ATP, 1 hour at 30° C.; read-out: IC50, inhibition of wild-type Abl catalysed phosphorylation", "description": "Test for activity against wild-type and mutant Abl protein tyrosine kinase:\nThe test, an in vitro enzyme assay, is conducted as a filter binding assay as follows: The His-tagged kinase domain of Abl is cloned and expressed in the baculovirus/Sf9 system as described by Bhat et al., J. Biol. Chem. 1997; 272:16170-16175. A protein of 37 kD (Abl kinase) is purified by a two-step procedure over a Cobalt metal chelate column followed by an anion exchange column with a yield of 1-2 mg/L of Sf9 cells. The purity of the Abl kinase is >90% as judged by SDS-PAGE after Coomassie blue staining.\nBased on the optimized assay conditions for the individual kinases a specific assay set-up was chosen. The assays were prepared and incubated on a liquid handling robot system using 384-well plates. To the assay plates containing 50 nL compound or control solutions, 4.5 μL of solution A consisting of the peptide substrate and ATP in assay buffer were added. The reactions were initiated by adding 4.5 μL of solution B consisting of the respective kinase in assay buffer. The reactions were incubated for 1 hour at 30° C. in a final reaction volume of 9.05 μL. Based on a generic assay buffer (50 mM HEPES pH7.5, 1 mM DTT, 0.02% Tween20, 0.02% BSA), following components were added depending on the chosen kinase: • c-Abl: 16 nM His-cAbl, 5 μM peptide substrate (FITC-Ahx-EAIYAAPFAKKK-CONH2), 10 mM MgCl2, 10 μM ATP • c-Abl-T315I: 2.4 nM His-cAbl-T315I, 5 μM peptide substrate (FITC-Ahx-EAIYAAPFAKKK-CONH2), 10 mM MgCl2, 10 μM ATP\nAfter incubation, the kinase reactions were stopped by the addition of 16 μL of stop solution (100 mM HEPES, 5% DMSO, 0.1% Coating reagent, 10 mM EDTA, 0.015% Brij 35). Subsequently, the assay plates were transferred to a Caliper LabChip3000 reader and the unphosphorylated substrate and the phosphorylated product were separated and quantitated in a microfluidic chip."}, "Bcr-Abl": {"target": "Bcr-Abl (Homo sapiens, UniProt P00519)", "sequence (P00519 with tags, fused parts or gaps)": "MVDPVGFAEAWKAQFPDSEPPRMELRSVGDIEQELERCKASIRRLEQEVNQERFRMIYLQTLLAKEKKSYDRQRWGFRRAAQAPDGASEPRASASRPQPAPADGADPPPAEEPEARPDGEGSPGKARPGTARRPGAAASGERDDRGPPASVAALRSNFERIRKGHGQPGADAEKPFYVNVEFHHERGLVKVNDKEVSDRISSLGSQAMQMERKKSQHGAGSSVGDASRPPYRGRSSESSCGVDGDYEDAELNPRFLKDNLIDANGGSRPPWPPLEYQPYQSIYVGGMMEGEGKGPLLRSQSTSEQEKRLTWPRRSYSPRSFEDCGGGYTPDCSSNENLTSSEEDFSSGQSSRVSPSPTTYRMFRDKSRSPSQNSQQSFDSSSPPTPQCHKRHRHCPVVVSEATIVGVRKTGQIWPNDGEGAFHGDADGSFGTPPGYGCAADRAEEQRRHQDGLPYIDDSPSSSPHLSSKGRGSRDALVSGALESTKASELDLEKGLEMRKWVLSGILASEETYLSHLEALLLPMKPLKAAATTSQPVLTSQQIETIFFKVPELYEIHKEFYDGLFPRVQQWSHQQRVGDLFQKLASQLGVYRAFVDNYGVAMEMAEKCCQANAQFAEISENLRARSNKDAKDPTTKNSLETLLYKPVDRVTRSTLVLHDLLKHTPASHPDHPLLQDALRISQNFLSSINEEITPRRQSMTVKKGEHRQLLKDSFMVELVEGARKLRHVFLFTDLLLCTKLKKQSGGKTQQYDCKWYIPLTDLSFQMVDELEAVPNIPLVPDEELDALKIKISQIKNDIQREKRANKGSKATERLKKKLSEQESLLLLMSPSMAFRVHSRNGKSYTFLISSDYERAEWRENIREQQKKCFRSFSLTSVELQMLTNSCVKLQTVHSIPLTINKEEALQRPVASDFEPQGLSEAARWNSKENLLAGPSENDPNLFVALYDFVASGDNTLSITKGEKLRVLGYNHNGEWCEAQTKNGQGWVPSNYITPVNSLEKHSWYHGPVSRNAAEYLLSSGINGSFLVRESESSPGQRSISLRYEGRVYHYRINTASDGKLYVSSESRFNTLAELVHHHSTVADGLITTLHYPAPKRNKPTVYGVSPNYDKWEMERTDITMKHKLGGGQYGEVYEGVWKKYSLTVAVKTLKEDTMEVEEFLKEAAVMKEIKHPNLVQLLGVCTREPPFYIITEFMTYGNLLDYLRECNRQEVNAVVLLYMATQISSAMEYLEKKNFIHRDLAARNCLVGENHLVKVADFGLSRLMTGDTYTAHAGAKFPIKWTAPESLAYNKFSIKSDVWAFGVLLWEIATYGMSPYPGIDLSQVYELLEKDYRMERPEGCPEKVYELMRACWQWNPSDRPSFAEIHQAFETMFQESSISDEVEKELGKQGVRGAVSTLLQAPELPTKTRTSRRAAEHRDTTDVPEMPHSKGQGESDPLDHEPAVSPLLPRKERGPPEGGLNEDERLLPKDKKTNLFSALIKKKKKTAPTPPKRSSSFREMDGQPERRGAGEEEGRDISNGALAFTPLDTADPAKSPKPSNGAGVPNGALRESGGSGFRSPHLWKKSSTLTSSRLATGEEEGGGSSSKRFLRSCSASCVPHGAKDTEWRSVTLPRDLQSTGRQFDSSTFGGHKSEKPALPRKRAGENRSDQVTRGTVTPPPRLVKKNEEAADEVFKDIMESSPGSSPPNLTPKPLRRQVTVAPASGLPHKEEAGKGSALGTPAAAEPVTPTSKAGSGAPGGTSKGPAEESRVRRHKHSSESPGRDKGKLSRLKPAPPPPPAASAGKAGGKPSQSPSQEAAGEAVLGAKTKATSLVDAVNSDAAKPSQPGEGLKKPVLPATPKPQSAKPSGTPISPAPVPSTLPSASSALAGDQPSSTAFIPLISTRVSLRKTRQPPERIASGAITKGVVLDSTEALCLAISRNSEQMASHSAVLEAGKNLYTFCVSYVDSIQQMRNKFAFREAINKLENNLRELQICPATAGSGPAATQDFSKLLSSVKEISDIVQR", "assay": "Bcr-Abl phosphorylation capture ELISA in 32D-Bcr-Abl cells", "type": "cell-based, murine", "details": "90 min at 37° C., read-out: IC50, reduction of Bcr-Abl phosphorylation", "description": "32D cl3 cells are obtained from the American Type Culture Collection (ATCC CRL11346) and Ba/F3 cells are obtained from the German Collection of Microorganisms and Cell Cultures (DSMZ, Braunschweig and DSMZ No. ACC 300) Palacios et al., Nature, 1984; 309:126 and Palacios et al., Cell, 1985:41:72.\nOncogene 1996; 12: 839-46; and Okuda K, Golub T R, Gilliland D G, Griffin J D. p210BCR-ABL, p190BCR-ABL, and TEL/ABL activate similar signal transduction pathways in hematopoietic cell lines. Oncogene 1996; 13:1147-52.)\nThe cells express the fusion Bcr-Abl protein with a constitutively active Abl kinase and proliferate growth factor independent. The cells are expanded in RPMI 1640 (AMIMED), 10% fetal calf serum (FCS), 2 mM glutamine (Gibco) (“complete medium”), and a working stock is prepared by freezing aliquots of 2×10^6 cells per vial in freezing medium (95% FCS, 5% DMSO (SIGMA)). After thawing, the cells are used during maximally 10-12 passages for the experiments. The antibody anti-Abl SH3 domain cat. #06-466 from Upstate Biotechnology is used for the ELISA. For detection of Bcr-Abl phosphorylation, the anti-phosphotyrosine antibody Ab PY20, labelled with alkaline phosphatase ([…]) from ZYMED (cat. #03-7722) is used. […]"}}, "data": [{"smiles": "O=C(Nc1cc(N2CCNCC2)cc(C(F)(F)F)c1)c1cccc2cc(Oc3ccnc(NC(=O)C4CC4)c3)ccc12", "note": "[Example 10, 6-[[2-(Cyclopropanecarbonyl-amino)-pyridin-4-yl]oxy]-naphthalene-1-carboxylic acid (3-piperazin-1-yl-5-trifluoromethyl-phenyl)-amide]", "values": [{"measurement": "IC50", "setting": "c-Abl (His-cAbl)", "result": "< 5", "unit": "nM"}, {"measurement": "IC50", "setting": "Bcr-Abl", "result": "101 to 370", "unit": "nM"}]}]}
